These results are taken from patent publication US4849345A, “L-phenylalanine dehydrogenase and use thereof” (priority 1985, dated 1989).

Assay [1] deals with T1, L-phenylalanine dehydrogenase produced by Bacillus sp. SCRC-R79a (Lysinibacillus sphaericus, UniProt P23307).
T1 sequence (P23307 1-381): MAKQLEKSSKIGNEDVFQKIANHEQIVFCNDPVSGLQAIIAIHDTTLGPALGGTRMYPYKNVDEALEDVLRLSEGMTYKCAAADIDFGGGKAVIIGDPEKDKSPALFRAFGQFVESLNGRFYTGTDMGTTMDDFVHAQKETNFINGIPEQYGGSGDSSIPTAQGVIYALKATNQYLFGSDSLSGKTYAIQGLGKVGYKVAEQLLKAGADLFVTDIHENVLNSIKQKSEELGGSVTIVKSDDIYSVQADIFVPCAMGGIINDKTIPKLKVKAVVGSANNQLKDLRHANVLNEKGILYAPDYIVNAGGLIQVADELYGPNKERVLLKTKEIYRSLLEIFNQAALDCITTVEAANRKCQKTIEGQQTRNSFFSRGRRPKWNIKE
The assay can be described thus: Effect of metal ions and inhibitors on enzyme activity (Bacillus enzyme). Format: biochemical. Also noted: inoculated with Bacillus sp; endogenous in cells; host or cells: Bacillus sp; enzyme purified in house. The conditions noted are these: for activity at 1000 µM: read-out: Relative activity. The procedure:
Unless otherwise described, the concentration of metal cations and inhibitors is 1 mM.

Assay [2] has as its target T2, L-phenylalanine dehydrogenase produced by Sporosarcina ureae SCRC-R04 (Sporosarcina ureae, UniProt P97014).
T2 sequence (P97014 1-379): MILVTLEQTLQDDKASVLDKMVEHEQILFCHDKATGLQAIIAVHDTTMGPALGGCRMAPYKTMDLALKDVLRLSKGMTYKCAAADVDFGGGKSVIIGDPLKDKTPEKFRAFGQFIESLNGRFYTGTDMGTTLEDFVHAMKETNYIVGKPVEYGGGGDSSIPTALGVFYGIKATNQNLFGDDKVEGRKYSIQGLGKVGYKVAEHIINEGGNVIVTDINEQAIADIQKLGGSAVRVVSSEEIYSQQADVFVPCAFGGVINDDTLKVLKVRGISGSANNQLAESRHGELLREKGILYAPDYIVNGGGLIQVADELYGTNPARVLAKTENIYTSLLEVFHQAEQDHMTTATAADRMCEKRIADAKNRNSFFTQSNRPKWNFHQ
Kind of assay: biochemical. The assay is classed as biochemical. The settings on record: for activity at 1000 µM: read-out: Relative activity.

Where [3] appears, read: 1 mM, not added = 100, listed as Fe^3+, 1000 µM.

Read-outs that look alike come from different tables or passages of the source.

With `[N-]=[N+]=[N-].[Na+]` [NaN3], the Relative activity in assay [1] (1 mM, not added = 100) stood at 102%; in assay [2] (1 mM, not added = 100) it was 100%.
As to `O=C(O)c1cc[c]([Hg][Cl])cc1` [PCMB], the “effect on enzyme activity (in words)” value in assay [1] and in assay [2] was “inhibited” throughout. Further, the Relative activity in assay [1] (0.2 mM, not added = 100) is given as 0%; in assay [2] (0.2 mM, not added = 100) it was 0%.
On to `[Zn+2]` [Zn^2+], for which the Relative activity in assay [1] (1 mM, not added = 100) is 96%; in assay [2] (1 mM, not added = 100), 99%.
Turning to `[Al+3]` [Al^3+], the Relative activity is recorded as 99% in assay [1] (1 mM, not added = 100) and 153% in assay [2] (1 mM, not added = 100).
In the case of `[Ni+2]` [Ni^2+], the Relative activity in assay [1] (1 mM, not added = 100) came to 100%; in assay [2] (1 mM, not added = 100), 100%.
`[Cu+2]` [Cu^2+]: the Relative activity stood at 85% in assay [1] (1 mM, not added = 100) and 91% in assay [2] (1 mM, not added = 100).
With `[Fe+2]` [Fe^2+], the Relative activity was 116% in assay [1] (1 mM, not added = 100, 1000 µM); 117% in assay [1] (setting [3]); 127% in assay [2] (1 mM, not added = 100, 1000 µM); 161% in assay [2] (setting [3]).
As for `CCN1C(=O)C=CC1=O` [N--Ethylmaleimide, N-ethylmaleimide], the activity at 1000 µM in assay [1] (1 mM, not added = 100) amounted to 162%; in assay [2] (1 mM, not added = 100), 21%. The “effect on enzyme activity (in words)” value in assay [2] is listed as “inhibited”.
`[Ag+]` [Ag^+]: the “effect on enzyme activity (in words)” value in assay [1] and in assay [2] was “inhibited” throughout. Also, the Relative activity in assay [1] (1 mM, not added = 100) is reported as 0%; in assay [2] (1 mM, not added = 100), 0%.
As to `O=C(O)c1cc(SSc2ccc([N+](=O)[O-])c(C(=O)O)c2)ccc1[N+](=O)[O-]` [5,5'-Dithio-bis(2-nitrobenzoic acid)], the activity at 1000 µM was found to be 74% in assay [1] (1 mM, not added = 100) and 0% in assay [2] (1 mM, not added = 100). Also, the “effect on enzyme activity (in words)” value in assay [2] is reported as “inhibited”.
As for `c1cnc2c(c1)ccc1cccnc12` [o-Phenanthroline], the activity at 1000 µM is 99% in assay [1] (1 mM, not added = 100) and 103% in assay [2] (1 mM, not added = 100).
`O=C(O)CI` [Iodoacetic acid]: the activity at 1000 µM in assay [1] came out at 127%; in assay [2], 91%.
Turning to `Oc1cccc2cccnc12` [8-Oxyquinoline], the Relative activity in assay [1] (1000 µM) is on record as 96; in assay [2] (1000 µM) it was 101.
Turning to `[Cd+2]` [Cd^2+], the Relative activity worked out at 102% in assay [1] (1 mM, not added = 100) and 70% in assay [2] (1 mM, not added = 100).
For the molecule `[Mn+2]` [Mn^2+], the Relative activity in assay [1] (1 mM, not added = 100) was 95%; in assay [2] (1 mM, not added = 100), 129%.
Take `[Na+]` [Na^+]: the Relative activity turned out to be 93% in assay [1] (1 mM, not added = 100) and 92% in assay [2] (1 mM, not added = 100).
As for `NO` [Hydroxylamine], the Relative activity in assay [1] (10 mM, not added = 100) was 90%; in assay [2] (10 mM, not added = 100), 173%.
Regarding `[Mg+2]` [Mg^2+], the Relative activity in assay [1] (1 mM, not added = 100) is listed as 99%; in assay [2] (1 mM, not added = 100), 90%.
For `c1ccc(-c2ccccn2)nc1` [α,α'-Dipyridyl], the activity at 1000 µM stood at 104% in assay [1] (1 mM, not added = 100) and 124% in assay [2] (1 mM, not added = 100).
Regarding `[Sn+2]` [Sn^2+], the Relative activity in assay [1] (0.5 mM, not added = 100) is given as 110%; in assay [2] (0.5 mM, not added = 100) it was 123%.
`[Pb+2]` [Pb^2+]: the Relative activity in assay [1] (1 mM, not added = 100) amounted to 53%; in assay [2] (1 mM, not added = 100), 81%.
`[Hg+2]` [Hg^2+]: the “effect on enzyme activity (in words)” value in assay [1] and in assay [2] was “inhibited” each time. Also, the Relative activity in assay [1] (0.01 mM, not added = 100) was 38%; in assay [2] (0.01 mM, not added = 100), 0%.
As to `[Ca+2]` [Ca^2+], the Relative activity in assay [1] (1 mM, not added = 100) is 92%; in assay [2] (1 mM, not added = 100), 100%.
Take `[Ba+2]` [Ba^2+]: the Relative activity in assay [1] (1 mM, not added = 100) amounted to 93%; in assay [2] (1 mM, not added = 100) it was 106%.
Regarding `[Li+]` [Li^+], the Relative activity is given as 95% in assay [1] (1 mM, not added = 100) and 96% in assay [2] (1 mM, not added = 100).
With `O=C(O)CN(CCN(CC(=O)O)CC(=O)O)CC(=O)O` [EDTA], the activity at 1000 µM in assay [1] is 120%; in assay [2], 119%.
